The values below come from ChEMBL document CHEMBL3045569, “Synthesis of allyl esters of fatty acids and their ovicidal effect on Cydia pomonella (L.)” (2009).

Values after ≈ are worked out from the molar mass of the structure shown. Active and inactive are the calls of the source. No cut-off for these calls is given here.

Assay [1] has as its system Cydia pomonella. The assay is described as follows: Ovicidal activity against <24 hr-old Cydia pomonella (codling moth) eggs assessed as corrected mortality at 0.1 mg/ml applied as 0.1 ul drop solution topically measured for 3 days. The class given is functional. Particulars: topical, 72 h.
Assay [2] deals with Cydia pomonella. The assay is described as follows: Ovicidal activity against <24 hr-old Cydia pomonella (codling moth) eggs assessed as mortality at the stage of white head development at 10 mg/ml applied as 0.1 ul drop solution topically measured for 3 days (acetone Rvb = 1.1 +/-0.44%). It counts as functional. The settings on record: topical, 72 h.
The subject of assay [3] is Cydia pomonella. Briefly: Ovicidal activity against <24 hr-old Cydia pomonella (codling moth) eggs assessed as corrected mortality at 1 mg/ml applied as 0.1 ul drop solution topically measured for 3 days. It counts as functional. The settings on record: topical, 72 h.
Assay [4] has as its system Cydia pomonella. The assay is described as follows: Ovicidal activity against <24 hr-old Cydia pomonella (codling moth) eggs assessed as corrected mortality at 0.5 mg/ml applied as 0.1 ul drop solution topically measured for 3 days. The class given is functional. Particulars: topical, 72 h.
Assay [5] has as its system Cydia pomonella. Briefly: Ovicidal activity against <24 hr-old Cydia pomonella (codling moth) eggs assessed as corrected mortality at 10 mg/ml applied as 0.1 ul drop solution topically measured for 3 days. The class given is functional. Particulars: topical, 72 h.
Assay [6] has as its system Cydia pomonella. The assay is described as follows: Ovicidal activity against <24 hr-old Cydia pomonella (codling moth) eggs assessed as corrected mortality at 1.75 mg/ml applied as 0.1 ul drop solution topically measured for 3 days. It counts as functional. The settings on record: topical, 72 h.
The subject of assay [7] is Cydia pomonella. Briefly: Ovicidal activity against <24 hr-old Cydia pomonella (codling moth) eggs assessed as corrected mortality at 5 mg/ml applied as 0.1 ul drop solution topically measured for 3 days. The settings on record: topical, 72 h. The class given is functional.
In assay [8] the test system is Cydia pomonella. Briefly: Ovicidal activity against <24 hr-old Cydia pomonella (codling moth) eggs assessed as mortality at the stage of red ring development at 10 mg/ml applied as 0.1 ul drop solution topically measured for 3 days (acetone Rvb = 4.4 +/-0.22%). The settings on record: topical, 72 h. The class given is functional.
For assay [9], the system named is Cydia pomonella. The assay is described as follows: Ovicidal activity against <24 hr-old Cydia pomonella (codling moth) eggs assessed as mortality at the stage of black head development at 10 mg/ml applied as 0.1 ul drop solution topically measured for 3 days (acetone Rvb = 94.4 +/-0.1%). The class given is functional. The settings on record: topical, 72 h.
Assay [10] concerns Cydia pomonella. The assay is described as follows: Ovicidal activity against <24 hr-old Cydia pomonella (codling moth) eggs assessed as increase in duration of the development of eggs applied as 0.1 ul drop solution topically measured for 3 days. The class given is functional, organism-based.
Assay [11] concerns Cydia pomonella. Briefly: Ovicidal activity against <24 hr-old Cydia pomonella (codling moth) eggs assessed as mortality applied as 0.1 ul drop solution topically measured for 3 days. The class given is functional. Particulars: for LC50: Cydia pomonella, topical, 72 h.
In assay [12] the test system is Cydia pomonella. The assay is described as follows: Ovicidal activity against <24 hr-old Cydia pomonella (codling moth) eggs assessed as corrected mortality at 2.5 mg/ml applied as 0.1 ul drop solution topically measured for 3 days. It counts as functional. Particulars: topical, 72 h.
The subject of assay [13] is Cydia pomonella. Briefly: Ovicidal activity against <24 hr-old Cydia pomonella (codling moth) eggs assessed as corrected mortality at 7.5 mg/ml applied as 0.1 ul drop solution topically measured for 3 days. It counts as functional. The settings on record: topical, 72 h.

The mortality is the percentage killed. What is called LC50 is the concentration lethal to half of the exposed cells or organisms. Regarding `C=CCOC(=O)CCCCCCCCCCCCC` [ALLYL TETRADECANOATE], the mortality at 100 µg/mL in the assay with Cydia pomonella [1] came out at 4.6%. The mortality at 10000 µg/mL in the assay on Cydia pomonella [2] stood at 54.4%; in the assay on Cydia pomonella [5], 100%; with Cydia pomonella [8] it was 17.8%; with Cydia pomonella [9] it was 27.8%. Also, the mortality at 1000 µg/mL with Cydia pomonella [3] worked out at 19.8%. In the assay with Cydia pomonella [4], the mortality at 500 µg/mL worked out at 7.5%. In the assay with Cydia pomonella [6], the mortality at 1750 µg/mL was 49.5%. For the same compound, the mortality at 5000 µg/mL in the assay with Cydia pomonella [7] turned out to be 97.2%. In the assay with Cydia pomonella [10], the result was Active. Further, the LC90 with Cydia pomonella [11] was determined as 3240 µg/mL (≈ 12.1 mM). Moreover, the LC50 with Cydia pomonella [11] stood at 1410 µg/mL (≈ 5.25 mM). For the same compound, the mortality at 2500 µg/mL with Cydia pomonella [12] came out at 87.5%. Moreover, in the assay on Cydia pomonella [13], the mortality at 7500 µg/mL was found to be 97.7%.

On to `C=CCOC(=O)CCCCCCCCC` [ALLYL DECANOATE], for which the mortality at 100 µg/mL in the assay on Cydia pomonella [1] came to 7.4%. Further, the mortality at 10000 µg/mL in the assay with Cydia pomonella [2] is 68.9%; with Cydia pomonella [5] it was 100%; in the assay with Cydia pomonella [8], 16.7%; in the assay with Cydia pomonella [9], 14.4%. In addition, in the assay with Cydia pomonella [3], the mortality at 1000 µg/mL came to 30.5%. Moreover, the mortality at 500 µg/mL in the assay on Cydia pomonella [4] stood at 12.4%. Also, the mortality at 1750 µg/mL in the assay on Cydia pomonella [6] amounted to 76.3%. The mortality at 5000 µg/mL in the assay with Cydia pomonella [7] came out at 98.7%. The result with Cydia pomonella [10] was Active. Also, in the assay on Cydia pomonella [11], the LC90 stood at 2260 µg/mL (≈ 10.6 mM). Further, in the assay with Cydia pomonella [11], the LC50 came out at 1400 µg/mL (≈ 6.59 mM). The mortality at 2500 µg/mL in the assay with Cydia pomonella [12] was 97.2%. The mortality at 7500 µg/mL in the assay with Cydia pomonella [13] came to 100%.

In the case of `C=CCOC(=O)CCCCCCC` [ALLYL OCTANOATE], the mortality at 100 µg/mL in the assay with Cydia pomonella [1] was found to be 9.7%. In addition, the mortality at 10000 µg/mL in the assay on Cydia pomonella [2] turned out to be 80%; in the assay on Cydia pomonella [5] it was 100%; in the assay on Cydia pomonella [8] it was 13.3%; with Cydia pomonella [9], 6.7%. In addition, the mortality at 1000 µg/mL in the assay with Cydia pomonella [3] was found to be 59.2%. The mortality at 500 µg/mL in the assay with Cydia pomonella [4] came out at 29.9%. In the assay on Cydia pomonella [6], the mortality at 1750 µg/mL worked out at 83.8%. Moreover, the mortality at 5000 µg/mL in the assay with Cydia pomonella [7] was 97.7%. The outcome in the assay with Cydia pomonella [10] was Active. For the same compound, the LC90 in the assay with Cydia pomonella [11] came out at 2180 µg/mL (≈ 11.8 mM). Further, the LC50 in the assay with Cydia pomonella [11] is 710 µg/mL (≈ 3.85 mM). Besides, the mortality at 2500 µg/mL in the assay on Cydia pomonella [12] is 95.9%. The mortality at 7500 µg/mL in the assay with Cydia pomonella [13] was 98.8%.

Take `CCOC(=O)NCCOc1ccc(Oc2ccccc2)cc1` [PHENOXYCARB]: the mortality at 500 µg/mL in the assay on Cydia pomonella [4] was 100%.

Turning to `C=CCOC(=O)CCCCC` [ALLYL HEXANOATE], in the assay with Cydia pomonella [1], the mortality at 100 µg/mL is 8.4%. For the same compound, the mortality at 10000 µg/mL was determined as 67.8% with Cydia pomonella [2], 100% with Cydia pomonella [5], 13.3% with Cydia pomonella [8] and 18.9% in the assay on Cydia pomonella [9]. For the same compound, the mortality at 1000 µg/mL in the assay with Cydia pomonella [3] came out at 51.2%. For the same compound, the mortality at 500 µg/mL in the assay on Cydia pomonella [4] is 22.4%. Also, the mortality at 1750 µg/mL with Cydia pomonella [6] turned out to be 83.8%. In addition, the mortality at 5000 µg/mL in the assay on Cydia pomonella [7] came out at 98.7%. Besides, in the assay with Cydia pomonella [10], the result was Active. In addition, in the assay with Cydia pomonella [11], the LC90 was found to be 2130 µg/mL (≈ 13.6 mM). Moreover, in the assay with Cydia pomonella [12], the mortality at 2500 µg/mL is 95.8%. For the same compound, the mortality at 7500 µg/mL with Cydia pomonella [13] is 100%.

With `C=CCOC(=O)CCCCCCCCCCCCCCC` [HEXADECANOIC ACID ALLYL ESTER], the mortality at 100 µg/mL with Cydia pomonella [1] amounted to 0%. In addition, the mortality at 10000 µg/mL was found to be 28.9% in the assay on Cydia pomonella [2], 100% in the assay with Cydia pomonella [5], 24.4% in the assay on Cydia pomonella [8] and 46.7% in the assay with Cydia pomonella [9]. Further, in the assay on Cydia pomonella [3], the mortality at 1000 µg/mL is 6%. Besides, the mortality at 500 µg/mL in the assay on Cydia pomonella [4] turned out to be 0%. Moreover, in the assay on Cydia pomonella [6], the mortality at 1750 µg/mL stood at 32.6%. Moreover, the mortality at 5000 µg/mL with Cydia pomonella [7] was found to be 72.2%. Besides, in the assay on Cydia pomonella [10], the result was Active. Further, in the assay with Cydia pomonella [11], the LC90 was found to be 7970 µg/mL (≈ 26.9 mM). Also, in the assay with Cydia pomonella [11], the 50% lethal concentration (LC50) came out at 2460 µg/mL (≈ 8.3 mM). For the same compound, the mortality at 2500 µg/mL in the assay on Cydia pomonella [12] was determined as 66.6%. Further, in the assay on Cydia pomonella [13], the mortality at 7500 µg/mL came to 87.2%.

Consider `C=CCOC(=O)CCCCCCCCCCC` [ALLYL DODECANOATE], for which the mortality at 100 µg/mL in the assay with Cydia pomonella [1] worked out at 0%. Besides, the mortality at 10000 µg/mL in the assay with Cydia pomonella [2] was 68.9%; in the assay on Cydia pomonella [5] it was 100%; in the assay with Cydia pomonella [8] it was 12.2%; with Cydia pomonella [9], 18.9%. The mortality at 1000 µg/mL with Cydia pomonella [3] was determined as 36.4%. For the same compound, in the assay with Cydia pomonella [4], the mortality at 500 µg/mL was determined as 10%. Further, the mortality at 1750 µg/mL with Cydia pomonella [6] is 71.7%. Besides, the mortality at 5000 µg/mL in the assay with Cydia pomonella [7] was found to be 96.5%. The result in the assay on Cydia pomonella [10] was Active. The LC90 in the assay on Cydia pomonella [11] turned out to be 2340 µg/mL (≈ 9.73 mM). Moreover, in the assay on Cydia pomonella [11], the LC50 is 1140 µg/mL (≈ 4.74 mM). Further, the mortality at 2500 µg/mL in the assay with Cydia pomonella [12] stood at 95.9%. In addition, the mortality at 7500 µg/mL with Cydia pomonella [13] was found to be 98.8%.

Regarding `C=CCOC(=O)CCC` [ALLYL BUTANOATE], in the assay with Cydia pomonella [1], the mortality at 100 µg/mL was determined as 6%. The mortality at 10000 µg/mL with Cydia pomonella [2] is 75.6%; in the assay on Cydia pomonella [5] it was 100%; in the assay on Cydia pomonella [8], 14.4%; with Cydia pomonella [9], 10%. For the same compound, the mortality at 1000 µg/mL in the assay on Cydia pomonella [3] came to 42.7%. In addition, in the assay with Cydia pomonella [4], the mortality at 500 µg/mL was 20.5%. For the same compound, the mortality at 1750 µg/mL with Cydia pomonella [6] was found to be 72%. Moreover, in the assay on Cydia pomonella [7], the mortality at 5000 µg/mL was found to be 98.7%. Also, in the assay on Cydia pomonella [10], the outcome was Active. Also, the LC90 in the assay on Cydia pomonella [11] came to 3200 µg/mL (≈ 25 mM). Also, the median lethal concentration (LC50) in the assay with Cydia pomonella [11] is 1060 µg/mL (≈ 8.27 mM). Moreover, in the assay with Cydia pomonella [12], the mortality at 2500 µg/mL came to 83.3%. The mortality at 7500 µg/mL in the assay with Cydia pomonella [13] worked out at 100%.

Take `C=CCOC(=O)CCCCCCCCCCCCCCCCC` [ALLYL OCTADECANOATE]: the mortality at 100 µg/mL with Cydia pomonella [1] amounted to 0%. For the same compound, the mortality at 10000 µg/mL in the assay with Cydia pomonella [2] came out at 43.3%; with Cydia pomonella [5], 100%; with Cydia pomonella [8], 13.3%; in the assay on Cydia pomonella [9], 43.3%. In the assay with Cydia pomonella [3], the mortality at 1000 µg/mL came out at 17.3%. Moreover, the mortality at 500 µg/mL with Cydia pomonella [4] worked out at 11.9%. Besides, the mortality at 1750 µg/mL in the assay on Cydia pomonella [6] came out at 32.1%. In addition, the mortality at 5000 µg/mL with Cydia pomonella [7] is 82.2%. Further, the result in the assay with Cydia pomonella [10] was Active. Besides, the LC90 in the assay on Cydia pomonella [11] stood at 7330 µg/mL (≈ 22.6 mM). Also, the 50% lethal concentration (LC50) with Cydia pomonella [11] turned out to be 2690 µg/mL (≈ 8.29 mM). For the same compound, the mortality at 2500 µg/mL with Cydia pomonella [12] is 41.6%. Moreover, the mortality at 7500 µg/mL in the assay on Cydia pomonella [13] was found to be 87.2%.
